From ChEMBL document CHEMBL1201861, “Genomics of Drug Sensitity in Cancer screening data, Wellcome Trust Sanger Institute”

How the values were obtained:
Test in all cases: cells
EOL1 = format: functional, cell-based, Homo sapiens; details: Homo sapiens, EOL1
Description: SANGER: Inhibition of human EoL-1-cell cell growth in a cell viability assay.

VA-ES-BJ = format: functional, cell-based, Homo sapiens; details: Homo sapiens, VA-ES-BJ
Description: SANGER: Inhibition of human VA-ES-BJ cell growth in a cell viability assay.

K5 = format: functional, cell-based, Homo sapiens; details: Homo sapiens, K5
Description: SANGER: Inhibition of human K5 cell growth in a cell viability assay.

KS-1 = format: functional, cell-based; details: Homo sapiens
Description: SANGER: Inhibition of human KS-1 cell growth in a cell viability assay.

JVM-3 = format: functional, cell-based, Homo sapiens; details: Homo sapiens, JVM-3
Description: SANGER: Inhibition of human JVM-3 cell growth in a cell viability assay.

KNS-42 = format: functional, cell-based; details: Homo sapiens
Description: SANGER: Inhibition of human KNS-42 cell growth in a cell viability assay.

CAS-1 = format: functional, cell-based, Homo sapiens; details: Homo sapiens, CAS-1
Description: SANGER: Inhibition of human CAS-1 cell growth in a cell viability assay.

GR-ST = format: functional, cell-based, Homo sapiens; details: Homo sapiens, GR-ST
Description: SANGER: Inhibition of human GR-ST cell growth in a cell viability assay.

A101D = format: functional, cell-based, Homo sapiens; details: Homo sapiens, A101D
Description: SANGER: Inhibition of human A101D cell growth in a cell viability assay.

NMC-G1 = format: functional, cell-based, Homo sapiens; details: Homo sapiens, NMC-G1
Description: SANGER: Inhibition of human NMC-G1 cell growth in a cell viability assay.

NOS-1 = format: functional, cell-based, Homo sapiens; details: Homo sapiens, NOS-1
Description: SANGER: Inhibition of human NOS-1 cell growth in a cell viability assay.

HCE-T = format: functional, cell-based, Homo sapiens; details: Homo sapiens, HCE-T
Description: SANGER: Inhibition of human HCE-T cell growth in a cell viability assay.

SJSA-1 = format: functional, cell-based, Homo sapiens; details: Homo sapiens, SJSA-1
Description: SANGER: Inhibition of human SJSA-1 cell growth in a cell viability assay.

NCI-H1838 = format: functional, cell-based, Homo sapiens; details: Homo sapiens, NCI-H1838
Description: SANGER: Inhibition of human NCI-H1838 cell growth in a cell viability assay.

NB13 = format: functional, cell-based, Homo sapiens; details: Homo sapiens, NB13
Description: SANGER: Inhibition of human NB13 cell growth in a cell viability assay.

NCI-H526 = format: functional, cell-based, Homo sapiens; details: Homo sapiens, NCI-H526
Description: SANGER: Inhibition of human NCI-H526 cell growth in a cell viability assay.

ES8 = format: functional, cell-based, Homo sapiens; details: Homo sapiens, ES8
Description: SANGER: Inhibition of human ES8 cell growth in a cell viability assay.

HCE-4 = format: functional, cell-based; details: Homo sapiens
Description: SANGER: Inhibition of human HCE-4 cell growth in a cell viability assay.

SH-4 = format: functional, cell-based; details: Homo sapiens
Description: SANGER: Inhibition of human SH-4 cell growth in a cell viability assay.

LNCaP-Clone-FGC = format: functional, cell-based, Homo sapiens; details: Homo sapiens, LNCaP-Clone-FGC
Description: SANGER: Inhibition of human LNCaP-Clone-FGC cell growth in a cell viability assay.

MN-60 = format: functional, cell-based, Homo sapiens; details: Homo sapiens, MN-60
Description: SANGER: Inhibition of human MN-60 cell growth in a cell viability assay.

NCI-H69 = format: functional, cell-based, Homo sapiens; details: Homo sapiens, NCI-H69
Description: SANGER: Inhibition of human NCI-H69 cell growth in a cell viability assay.

KY821 = format: functional, cell-based, Homo sapiens; details: Homo sapiens, KY821
Description: SANGER: Inhibition of human KY821 cell growth in a cell viability assay.

ONS-76 = format: functional, cell-based, Homo sapiens; details: Homo sapiens, ONS-76
Description: SANGER: Inhibition of human ONS-76 cell growth in a cell viability assay.

LU-139 = format: functional, cell-based, Homo sapiens; details: Homo sapiens, LU-139
Description: SANGER: Inhibition of human LU-139 cell growth in a cell viability assay.

LU-134-A = format: functional, cell-based, Homo sapiens; details: Homo sapiens, LU-134-A
Description: SANGER: Inhibition of human LU-134-A cell growth in a cell viability assay.

MMAC-SF = format: functional, cell-based; details: Homo sapiens
Description: SANGER: Inhibition of human MMAC-SF cell growth in a cell viability assay.

MHH-PREB-1 = format: functional, cell-based, Homo sapiens; details: Homo sapiens, MHH-PREB-1
Description: SANGER: Inhibition of human MHH-PREB-1 cell growth in a cell viability assay.

CCRF-CEM = format: functional, cell-based, Homo sapiens; details: Homo sapiens, CCRF-CEM
Description: SANGER: Inhibition of human CCRF-CEM cell growth in a cell viability assay.

LC-2-ad = format: functional, cell-based, Homo sapiens; details: Homo sapiens, LC-2-ad
Description: SANGER: Inhibition of human LC-2-ad cell growth in a cell viability assay.

KG-1 = format: functional, cell-based, Homo sapiens; details: Homo sapiens, KG-1
Description: SANGER: Inhibition of human KG-1 cell growth in a cell viability assay.

NB6 = format: functional, cell-based, Homo sapiens; details: Homo sapiens, NB6
Description: SANGER: Inhibition of human NB6 cell growth in a cell viability assay.

TE-9 = format: functional, cell-based, Homo sapiens; details: Homo sapiens, TE-9
Description: SANGER: Inhibition of human TE-9 cell growth in a cell viability assay.

HD-MY-Z = format: functional, cell-based, Homo sapiens; details: Homo sapiens, HD-MY-Z
Description: SANGER: Inhibition of human HD-MY-Z cell growth in a cell viability assay.

697 = format: functional, cell-based, Homo sapiens; details: Homo sapiens
Description: SANGER: Inhibition of human 697 cell growth in a cell viability assay.

GB-1 = format: functional, cell-based, Homo sapiens; details: Homo sapiens, GB-1
Description: SANGER: Inhibition of human GB-1 cell growth in a cell viability assay.

8-MG-BA = format: functional, cell-based, Homo sapiens; details: Homo sapiens, 8-MG-BA
Description: SANGER: Inhibition of human 8-MG-BA cell growth in a cell viability assay.

CTV-1 = format: functional, cell-based, Homo sapiens; details: Homo sapiens, CTV-1
Description: SANGER: Inhibition of human CTV-1 cell growth in a cell viability assay.

TK-10 = format: functional, cell-based, Homo sapiens; details: Homo sapiens, TK-10
Description: SANGER: Inhibition of human TK10 cell growth in a cell viability assay.

NCI-H1092 = format: functional, cell-based, Homo sapiens; details: Homo sapiens, NCI-H1092
Description: SANGER: Inhibition of human NCI-H1092 cell growth in a cell viability assay.

D283 Med = format: functional, cell-based, Homo sapiens; details: Homo sapiens, D283 Med
Description: SANGER: Inhibition of human D-283MED cell growth in a cell viability assay.

U-266 = format: functional, cell-based, Homo sapiens; details: Homo sapiens, U-266
Description: SANGER: Inhibition of human U-266 cell growth in a cell viability assay.

MZ7-mel = format: functional, cell-based, Homo sapiens; details: Homo sapiens, MZ7-mel
Description: SANGER: Inhibition of human MZ7-mel cell growth in a cell viability assay.

SK-MEL-2 = format: functional, cell-based, Homo sapiens; details: Homo sapiens, SK-MEL-2
Description: SANGER: Inhibition of human SK-MEL-2 cell growth in a cell viability assay.

KURAMOCHI = format: functional, cell-based, Homo sapiens; details: Homo sapiens, KURAMOCHI
Description: SANGER: Inhibition of human KURAMOCHI cell growth in a cell viability assay.

MS-1 = format: functional, cell-based, Homo sapiens; details: Homo sapiens, MS-1
Description: SANGER: Inhibition of human MS-1 cell growth in a cell viability assay.

SW684 = format: functional, cell-based, Homo sapiens; details: Homo sapiens, SW684; read-out: IC50
Description: SANGER: Inhibition of human SW684 cell growth in a cell viability assay.

SF-126 = format: functional, cell-based, Homo sapiens; details: Homo sapiens, SF-126
Description: SANGER: Inhibition of human SF126 cell growth in a cell viability assay.

GI-ME-N = format: functional, cell-based, Homo sapiens; details: Homo sapiens, GI-ME-N
Description: SANGER: Inhibition of human GI-ME-N cell growth in a cell viability assay.

LAMA-84 = format: functional, cell-based, Homo sapiens; details: Homo sapiens, LAMA-84
Description: SANGER: Inhibition of human LAMA-84 cell growth in a cell viability assay.

KGN = format: functional, cell-based, Homo sapiens; details: Homo sapiens, KGN
Description: SANGER: Inhibition of human KGN cell growth in a cell viability assay.

## CCCCCCCCCCCC1=C(O)C(=O)C=C(O)C1=O [EMBELIN]
EOL1
  IC50: 6730 nM
VA-ES-BJ
  IC50: 10700 nM
K5
  IC50: > 32000 nM
KS-1
  IC50: 14500 nM
JVM-3
  IC50: > 32000 nM
KNS-42
  IC50: > 32000 nM
CAS-1
  IC50: 15300 nM
GR-ST
  IC50: 5800 nM
A101D
  IC50: 6370 nM
NMC-G1
  IC50: 6970 nM
NOS-1
  IC50: 4670 nM
HCE-T
  IC50: 13100 nM
SJSA-1
  IC50: 4270 nM
NCI-H1838
  IC50: > 32000 nM
NB13
  IC50: 16700 nM
NCI-H526
  IC50: > 32000 nM
ES8
  IC50: 14000 nM
HCE-4
  IC50: 8560 nM
SH-4
  IC50: 24900 nM
LNCaP-Clone-FGC
  IC50: 21900 nM
MN-60
  IC50: > 32000 nM
NCI-H69
  IC50: > 32000 nM
KY821
  IC50: > 32000 nM
ONS-76
  IC50: 8450 nM
LU-139
  IC50: > 32000 nM
LU-134-A
  IC50: > 32000 nM
MMAC-SF
  IC50: 26800 nM
MHH-PREB-1
  IC50: 10900 nM
CCRF-CEM
  IC50: 3020 nM
LC-2-ad
  IC50: 12900 nM
KG-1
  IC50: > 32000 nM
NB6
  IC50: > 32000 nM
TE-9
  IC50: 8500 nM
HD-MY-Z
  IC50: 26900 nM
697
  IC50: > 32000 nM
GB-1
  IC50: 5230 nM
8-MG-BA
  IC50: 3530 nM
CTV-1
  IC50: 9370 nM
TK-10
  IC50: > 32000 nM
NCI-H1092
  IC50: > 32000 nM
D283 Med
  IC50: 14700 nM
U-266
  IC50: > 32000 nM
MZ7-mel
  IC50: 9780 nM
SK-MEL-2
  IC50: 11700 nM
KURAMOCHI
  IC50: 7060 nM
MS-1
  IC50: > 32000 nM
SW684
  IC50: > 32000 nM
SF-126
  IC50: 10300 nM
GI-ME-N
  IC50: > 32000 nM
LAMA-84
  IC50: 18500 nM
KGN
  IC50: 3220 nM

## CC1(C)CCC(c2ccc(Cl)cc2)=C(CN2CCN(c3ccc(C(=O)NS(=O)(=O)c4ccc(N[C@H](CCN5CCOCC5)CSc5ccccc5)c(S(=O)(=O)C(F)(F)F)c4)cc3)CC2)C1 [NAVITOCLAX]
EOL1
  IC50: 6.69 nM
VA-ES-BJ
  IC50: > 2000 nM
K5
  IC50: > 2000 nM
KS-1
  IC50: > 2000 nM
JVM-3
  IC50: > 2000 nM
KNS-42
  IC50: > 2000 nM
CAS-1
  IC50: > 2000 nM
GR-ST
  IC50: > 2000 nM
A101D
  IC50: > 2000 nM
NMC-G1
  IC50: 811 nM
NOS-1
  IC50: > 2000 nM
HCE-T
  IC50: > 2000 nM
SJSA-1
  IC50: > 2000 nM
NCI-H1838
  IC50: > 2000 nM
NB13
  IC50: 82 nM
NCI-H526
  IC50: > 2000 nM
ES8
  IC50: > 2000 nM
HCE-4
  IC50: > 2000 nM
SH-4
  IC50: > 2000 nM
LNCaP-Clone-FGC
  IC50: > 2000 nM
MN-60
  IC50: > 2000 nM
NCI-H69
  IC50: > 2000 nM
KY821
  IC50: 29.7 nM
ONS-76
  IC50: > 2000 nM
LU-139
  IC50: 205 nM
LU-134-A
  IC50: 187 nM
MMAC-SF
  IC50: > 2000 nM
MHH-PREB-1
  IC50: > 2000 nM
CCRF-CEM
  IC50: 335 nM
LC-2-ad
  IC50: > 2000 nM
KG-1
  IC50: 44.9 nM
NB6
  IC50: > 2000 nM
TE-9
  IC50: > 2000 nM
HD-MY-Z
  IC50: > 2000 nM
697
  IC50: 108 nM
GB-1
  IC50: > 2000 nM
8-MG-BA
  IC50: > 2000 nM
CTV-1
  IC50: > 2000 nM
TK-10
  IC50: > 2000 nM
NCI-H1092
  IC50: 103 nM
D283 Med
  IC50: 177 nM
U-266
  IC50: > 2000 nM
MZ7-mel
  IC50: > 2000 nM
SK-MEL-2
  IC50: > 2000 nM
KURAMOCHI
  IC50: > 2000 nM
MS-1
  IC50: 469 nM
SW684
  IC50: > 2000 nM
SF-126
  IC50: > 2000 nM
GI-ME-N
  IC50: > 2000 nM
LAMA-84
  IC50: 592 nM
KGN
  IC50: > 2000 nM

## C/C(=C\c1csc(C)n1)[C@@H]1C[C@@H]2O[C@]2(C)CCC[C@H](C)[C@H](O)[C@@H](C)C(=O)C(C)(C)[C@@H](O)CC(=O)O1 [PATUPILONE]
EOL1
  IC50: 12.9 nM
VA-ES-BJ
  IC50: 4.35 nM
K5
  IC50: 5.59 nM
KS-1
  IC50: 1.76 nM
JVM-3
  IC50: > 32 nM
KNS-42
  IC50: 3.91 nM
CAS-1
  IC50: 24.5 nM
GR-ST
  IC50: 3.91 nM
A101D
  IC50: 0.856 nM
NMC-G1
  IC50: 1.75 nM
NOS-1
  IC50: 2.72 nM
HCE-T
  IC50: 4.07 nM
SJSA-1
  IC50: 2.09 nM
NCI-H1838
  IC50: > 32 nM
NB13
  IC50: 0.447 nM
NCI-H526
  IC50: 7.24 nM
ES8
  IC50: 1.65 nM
HCE-4
  IC50: 1.3 nM
SH-4
  IC50: 7.73 nM
LNCaP-Clone-FGC
  IC50: 4.26 nM
MN-60
  IC50: > 32 nM
NCI-H69
  IC50: 14.8 nM
KY821
  IC50: > 32 nM
ONS-76
  IC50: 4.1 nM
LU-139
  IC50: > 32 nM
LU-134-A
  IC50: 15.8 nM
MMAC-SF
  IC50: 23 nM
MHH-PREB-1
  IC50: 7.51 nM
CCRF-CEM
  IC50: 2.94 nM
LC-2-ad
  IC50: < 0.125 nM
KG-1
  IC50: 5.1 nM
NB6
  IC50: 17.5 nM
TE-9
  IC50: 1.57 nM
HD-MY-Z
  IC50: 23.3 nM
697
  IC50: 1.78 nM
GB-1
  IC50: 1.19 nM
8-MG-BA
  IC50: 4.78 nM
CTV-1
  IC50: 5.16 nM
TK-10
  IC50: 2.05 nM
NCI-H1092
  IC50: > 32 nM
D283 Med
  IC50: > 32 nM
U-266
  IC50: 9.72 nM
MZ7-mel
  IC50: 17.1 nM
SK-MEL-2
  IC50: 7.19 nM
KURAMOCHI
  IC50: 6.05 nM
MS-1
  IC50: 10.2 nM
SW684
  IC50: > 32 nM
SF-126
  IC50: 3.47 nM
GI-ME-N
  IC50: 6.08 nM
LAMA-84
  IC50: 18.9 nM
KGN
  IC50: 0.617 nM
